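Tested at 5 concentrations; 48 h exposure; 96-well plates; endpoints linearly interpolated, else capped at highest concentration. GI50 = concentration required for 50% inhibition of growth.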 The source made the active and inactive calls. Cut-off read from the data, not from the text of the source: active = GI50 up to about 1.1 µM and inactive = higher.
Experiments:
Experiment in all cases: inhibition of tumour cell growth, NCI panel, 48 h
A549 = system: A549
BT-549 = system: BT-549
CCRF-CEM = system: CCRF-CEM
HCT-116 = system: HCT-116
HCT-15 = system: HCT-15
Hs-578T = system: Hs-578T
NCI-H226 = system: NCI-H226
NCI-H23 = system: NCI-H23
NCI-H460 = system: NCI-H460
NCI-H522 = system: NCI-H522
NCI/ADR-RES = system: NCI/ADR-RES
OVCAR-3 = system: OVCAR-3
PC-3 = system: PC-3
SK-MEL-28 = system: SK-MEL-28
SK-OV-3 = system: SK-OV-3
SN12C = system: SN12C
SNB-19 = system: SNB-19
SNB-75 = system: SNB-75
SW-620 = system: SW-620
UACC-257 = system: UACC-257

Compound | GI50 (A549) | GI50 (BT-549) | GI50 (CCRF-CEM) | GI50 (HCT-116) | GI50 (HCT-15) [µM] | GI50 (Hs-578T) | GI50 (NCI-H226) | GI50 (NCI-H23) | GI50 (NCI-H460) | GI50 (NCI-H522) | GI50 (NCI/ADR-RES) | GI50 (OVCAR-3) | GI50 (PC-3) | GI50 (SK-MEL-28) | GI50 (SK-OV-3) | GI50 (SN12C) | GI50 (SNB-19) | GI50 (SNB-75) | GI50 (SW-620) | GI50 (UACC-257)
COc1ccc(-c2c3ccccc3c(-c3ccc(OCCBr)cc3)c3ccccc23)cc1 | > 100 µM (inactive) | > 100 µM (inactive) | > 100 µM (inactive) | > 100 µM (inactive) | > 100 | > 100 µM (inactive) | > 100 µM (inactive) | > 100 µM (inactive) | > 100 µM (inactive) | > 100 µM (inactive) | > 100 µM (inactive) | > 100 µM (inactive) | > 100 µM (inactive) | > 100 µM (inactive) | > 100 µM (inactive) | > 100 µM (inactive) | > 100 µM (inactive) | 43.9 µM (inactive) | > 100 µM (inactive) | > 100 µM (inactive)
Cc1ccc(/C=C2\CCCC(CN(C)C)C2=O)cc1 (stereo not given) | 15.6 µM (inactive) | 2.49 µM (inactive) | 1.26 µM (inactive) | 1.69 µM (inactive) | 1.97 | 3.21 µM (inactive) | 2.56 µM (inactive) | 2.24 µM (inactive) | 3.48 µM (inactive) | 0.0951 µM (active) | 3.32 µM (inactive) | 1.76 µM (inactive) | 3.33 µM (inactive) | 1.95 µM (inactive) | 13.6 µM (inactive) | 1.91 µM (inactive) | 16.4 µM (inactive) | 8.13 µM (inactive) | 1.53 µM (inactive) | 1.88 µM (inactive)
COc1ccc2cc(NC(=O)N/N=C\c3ccc(Cl)cc3)ccc2c1 | > 100 µM (inactive) | > 100 µM (inactive) | > 100 µM (inactive) | > 100 µM (inactive) | > 100 | 24 µM (inactive) | > 100 µM (inactive) | > 100 µM (inactive) | 50 µM (inactive) | > 100 µM (inactive) | 86.3 µM (inactive) | > 100 µM (inactive) | > 100 µM (inactive) | > 100 µM (inactive) | > 100 µM (inactive) | > 100 µM (inactive) | 46.2 µM (inactive) | 72.3 µM (inactive) | > 100 µM (inactive) | > 100 µM (inactive)
Cc1c2c(OCCCCN3CCN(c4ncccn4)CC3)nn(C)c(=O)c2c(C)n1-c1ccccc1 | 20.7 µM (inactive) | 19.3 µM (inactive) | 31.1 µM (inactive) | 16.9 µM (inactive) | 17.8 | 26.2 µM (inactive) | 20.7 µM (inactive) | 19.1 µM (inactive) | 17.4 µM (inactive) | 18.4 µM (inactive) | 21.3 µM (inactive) | 19.5 µM (inactive) | 20.4 µM (inactive) | 18.4 µM (inactive) | 18.7 µM (inactive) | 17.2 µM (inactive) | 19 µM (inactive) | 19.5 µM (inactive) | 25.6 µM (inactive) | 18.7 µM (inactive)
O=C1NC(Nc2ccccc2)=N/C1=C\c1c(Cl)cccc1Cl | 18.2 µM (inactive) | > 100 µM (inactive) | 14.3 µM (inactive) | 27.4 µM (inactive) | 49.8 | 25.8 µM (inactive) | 16.7 µM (inactive) | 29.6 µM (inactive) | 24.9 µM (inactive) | 53.3 µM (inactive) | 23.6 µM (inactive) | 63.4 µM (inactive) | 17.8 µM (inactive) | 30.5 µM (inactive) | 21.6 µM (inactive) | 15.7 µM (inactive) | 25 µM (inactive) | 18.9 µM (inactive) | 36.1 µM (inactive) | 23.8 µM (inactive)
CC1C2CC(CC23OCC(CCl)O3)C1(C)C (stereo not given) | > 100 µM (inactive) | > 100 µM (inactive) | > 100 µM (inactive) | > 100 µM (inactive) | > 100 | > 100 µM (inactive) | > 100 µM (inactive) | > 100 µM (inactive) | > 100 µM (inactive) | > 100 µM (inactive) | > 100 µM (inactive) | > 100 µM (inactive) | > 100 µM (inactive) | > 100 µM (inactive) | > 100 µM (inactive) | > 100 µM (inactive) | > 100 µM (inactive) | > 100 µM (inactive) | > 100 µM (inactive) | > 100 µM (inactive)
COC(=O)c1cccc(OC)c1C#Cc1c(OC)cccc1OC | > 100 µM (inactive) | > 100 µM (inactive) | > 100 µM (inactive) | > 100 µM (inactive) | > 100 | > 100 µM (inactive) | > 100 µM (inactive) | > 100 µM (inactive) | > 100 µM (inactive) | 0.47 µM (active) | > 100 µM (inactive) | > 100 µM (inactive) | > 100 µM (inactive) | > 100 µM (inactive) | > 100 µM (inactive) | > 100 µM (inactive) | > 100 µM (inactive) | > 100 µM (inactive) | > 100 µM (inactive) | > 100 µM (inactive)
CCOC(=O)C(NC(=O)c1ccccc1)(N1CCN(c2cc3c(cc2F)c(=O)c(C(=O)O)cn3CC)CC1)C(F)(F)F (stereo not given) | 39.9 µM (inactive) | 35.9 µM (inactive) | 21.8 µM (inactive) | 33.9 µM (inactive) | 24.4 | 43.3 µM (inactive) | 29.2 µM (inactive) | 32.4 µM (inactive) | 32.1 µM (inactive) | 16.7 µM (inactive) | 41.4 µM (inactive) | 31.3 µM (inactive) | 31.3 µM (inactive) | < 0.01 µM (active) | 34.3 µM (inactive) | 32.9 µM (inactive) | 29.9 µM (inactive) | 26.1 µM (inactive) | 47.6 µM (inactive) | 12.9 µM (inactive)
CCOC(=O)Cc1ccc(Nc2nc3cc(F)c(F)cc3nc2C(=O)OCC)cc1 | 74 µM (inactive) | 55.6 µM (inactive) | 42.8 µM (inactive) | 71.9 µM (inactive) | 21.8 | 64.7 µM (inactive) | 69.3 µM (inactive) | 26 µM (inactive) | 69.5 µM (inactive) | 9.18 µM (inactive) | 43.9 µM (inactive) | 47.2 µM (inactive) | 49.5 µM (inactive) | 64 µM (inactive) | > 100 µM (inactive) | 74.5 µM (inactive) | 48.2 µM (inactive) | 81.8 µM (inactive) | 43.7 µM (inactive) | 44.2 µM (inactive)
CC(C)(CN1CCCCC1)C(/C=C/c1ccccc1)=N\NC(=O)N/N=C(/C=C/c1ccccc1)C(C)(C)CN1CCCCC1 | 2.43 µM (inactive) | 1.77 µM (inactive) | 1.19 µM (inactive) | 1.58 µM (inactive) | 1.37 | 2.67 µM (inactive) | 2.37 µM (inactive) | 2.08 µM (inactive) | 1.38 µM (inactive) | 1.83 µM (inactive) | 1.74 µM (inactive) | 2.34 µM (inactive) | 1.97 µM (inactive) | 1.68 µM (inactive) | 3.32 µM (inactive) | 1.89 µM (inactive) | 1.91 µM (inactive) | 1.38 µM (inactive) | 1.7 µM (inactive) | 1.71 µM (inactive)
CCOC(=S)SCC(=O)O | > 100 µM (inactive) | > 100 µM (inactive) | 1 µM (active) | > 100 µM (inactive) | > 100 | > 100 µM (inactive) | > 100 µM (inactive) | > 100 µM (inactive) | > 100 µM (inactive) | > 100 µM (inactive) | > 100 µM (inactive) | > 100 µM (inactive) | > 100 µM (inactive) | > 100 µM (inactive) | > 100 µM (inactive) | > 100 µM (inactive) | > 100 µM (inactive) | > 100 µM (inactive) | > 100 µM (inactive) | > 100 µM (inactive)
COC(=O)C1CCC(=O)N1C(c1ccccc1)c1ccc(OC)c(OC)c1 (stereo not given) | > 100 µM (inactive) | > 100 µM (inactive) | > 10 µM (inactive) | > 100 µM (inactive) | > 100 | > 100 µM (inactive) | > 100 µM (inactive) | > 100 µM (inactive) | > 100 µM (inactive) | > 100 µM (inactive) | > 100 µM (inactive) | > 100 µM (inactive) | > 100 µM (inactive) | > 100 µM (inactive) | > 100 µM (inactive) | > 100 µM (inactive) | > 100 µM (inactive) | 15.7 µM (inactive) | > 100 µM (inactive) | > 100 µM (inactive)
CSc1nc(Cl)c2c(n1)Sc1nc3cc4c(cc3n1C2O)OCO4 (stereo not given) | 0.617 µM (active) | 0.452 µM (active) | 0.269 µM (active) | 0.0863 µM (active) | 0.31 | 1.05 µM (active) | 1.1 µM (active) | 0.891 µM (active) | 0.364 µM (active) | 0.26 µM (active) | 0.385 µM (active) | 0.982 µM (active) | 0.306 µM (active) | 0.895 µM (active) | 1.72 µM (inactive) | 0.578 µM (active) | 1.57 µM (inactive) | 3.75 µM (inactive) | 0.33 µM (active) | > 58.7 µM (inactive)
COC(=O)/C(=N\N)C(C(=O)C(=O)Nc1cccc([N+](=O)[O-])c1)c1nc2ccc(C(=O)c3ccccc3)cc2nc1O (stereo not given) | 61.4 µM (inactive) | > 100 µM (inactive) | 22.3 µM (inactive) | > 100 µM (inactive) | > 100 | > 100 µM (inactive) | > 100 µM (inactive) | > 100 µM (inactive) | > 100 µM (inactive) | 72.1 µM (inactive) | > 100 µM (inactive) | > 100 µM (inactive) | 84.5 µM (inactive) | > 100 µM (inactive) | 93.8 µM (inactive) | > 100 µM (inactive) | > 100 µM (inactive) | > 100 µM (inactive) | > 100 µM (inactive) | > 100 µM (inactive)
